The subject of assay [1] is HCV 1a replicon containing NS5A mutation L31V. Description: HCV 1a L31V replicon assay. The assay is classed as cell-based, Hepatitis C virus. As to conditions: for EC50: Hepatitis C virus, read-out: EC50 (nM) 1a L31V. The protocol: (§1) Table 2 compares compounds containing unsubstituted benzimidazole to those containing halo-substituted benzimidazole. Anti-viral activities were assessed using wild-type replicons (e.g., 1b WT or 1a WT) as well as replicons containing specific NS5A mutations (e.g., 1b L28T, 1b Y93H, 1a L31V, 1a Y93C, 1a M28V, or 1a Q30E) in the absence of FBS.
In general terms: In antiviral work, replicon cells carry a viral genome segment that copies itself.

In a further assay the test system is HCV genotype 1a replicon. Description: HCV genotype 1a replicon assay. In kind it is cell-based, Hepatitis C virus. The conditions noted are these: Hepatitis C virus, wild-type replicon, in the absence of FBS; read-out: EC50 (nM) 1a WT.
Excerpt: (§2) [drawing 14] employs a biphenyl linker between the imidazole moieties. See WO2008021927(BMS). The EC50 values of BMS-790052 against different HCV genotypes were shown by Nettles et al., “BMS-790052 is a First-in-class Potent Hepatitis C Virus (HCV) NS5A Inhibitor for Patients with Chronic HCV Infection: Results from a Proof-of-concept Study”, 59th Annual Meeting of the American Association for the Study of Liver Diseases (Oct. 31-Nov. 1, 2008, San Francisco, Calif.; www.natap.org/2008/AASLD/AASLD_06.htm). […] See also Gao et al., NATURE 465:96-100 (2010). The compounds in Table 1 use different linkers between the imidazole moieties. Table 1 depicts the EC50 values of these compounds when tested using respective replicon assays in the presence of 5% (v/v) fetal bovine serum (FBS).
as §1
(§3) Table 3 compares compounds with different linkers between the benzimidazole moieties. Anti-viral activities were determined using 1a and 1b replicon assays. “HP” refers to human plasma. […] As compared to the phenyl linker

Another assay has as its system HCV genotype 1b replicon. Description: HCV genotype 1b replicon assay. The conditions noted are these: Hepatitis C virus, wild-type replicon, in the absence of FBS; read-out: EC50 (nM) 1b WT. In kind it is cell-based, Hepatitis C virus.
Excerpt: as §2, §1, §3

Assay [2] relates to HCV 1a replicon containing NS5A mutation M28V. In words: HCV 1a M28V replicon assay. In kind it is cell-based. As to conditions: Hepatitis C virus, read-out: EC50 (nM) 1a M28V. How it is done:
as §1

Assay [3] relates to HCV 1b replicon containing NS5A mutation L28T. Description: HCV 1b L28T replicon assay. The assay is classed as cell-based. The conditions noted are these: Hepatitis C virus, read-out: EC50 (nM) 1b L28T. The protocol:
as §1

The test system of assay [4] is HCV 1b replicon containing NS5A mutation Y93H. In words: HCV 1b Y93H replicon assay. The assay is classed as cell-based, Hepatitis C virus. As to conditions: Hepatitis C virus, read-out: EC50 (nM) 1b Y93H. How it is done:
as §1

Assay [5] relates to HCV 1a replicon containing NS5A mutation Q30E. In words: HCV 1a Q30E replicon assay. In kind it is cell-based. The conditions noted are these: Hepatitis C virus, read-out: EC50 (nM) 1a Q30E. The protocol:
as §1

Assay [6] concerns HCV 1a replicon containing NS5A mutation Y93C. Description: HCV 1a Y93C replicon assay. The assay is classed as cell-based. The conditions noted are these: Hepatitis C virus, read-out: EC50 (nM) 1a Y93C. The protocol: as §1
Another assay deals with HCV 1b-Con1 replicon. In words: HCV 1b-Con1 replicon assay in the presence of 5% FBS (luciferase reporter). In kind it is cell-based. As to conditions: Hepatitis C virus.

One may read the EC50 as the midpoint of the concentration-response curve.

Take `COC(=O)N[C@H](C(=O)N1CCCC1c1nc2c(F)cc(-c3ccc(-c4cc(F)c5nc([C@@H]6CCCN6C(=O)[C@@H](NC(=O)OC)C(C)C)[nH]c5c4)cc3)cc2[nH]1)C(C)C` (some centres unmarked): the “activity against HCV variants containing NS5A mutations (e.g., 1a L31V)” value in assay [1] (compared with unsubstituted benzimidazole reference compound of Table 2) is “better activity”.

As to `COC(=O)N[C@H](C(=O)N1CCC[C@H]1c1nc2cc(F)c(-c3ccc(-c4c(F)cc5nc([C@@H]6CCCN6C(=O)[C@@H](NC(=O)OC)C(C)C)[nH]c5c4F)cc3)c(F)c2[nH]1)C(C)C`, the EC50 with HCV genotype 1a replicon was 0.28 nM; in the assay on HCV genotype 1b replicon, 0.005 nM; in [1] it was 33 nM; in assay [2], 11.6 nM; in assay [3] it was above 10 nM; in assay [4], 5.7 nM. In addition, the EC50 came out at 306 nM in assay [5] and 103 nM in assay [6].

Consider `COC(=O)N[C@H](C(=O)N1CCC[C@H]1c1nc2cc(F)c(-c3ccc(-c4cc5[nH]c([C@@H]6CCCN6C(=O)[C@@H](NC(=O)OC)C(C)C)nc5cc4F)cc3)cc2[nH]1)C(C)C`, for which the EC50 with HCV genotype 1a replicon was determined as 0.14 nM; in the assay on HCV genotype 1b replicon, 0.003 nM; in assay [1], 109 nM; in assay [2], 2.4 nM; in assay [3] it was 1.8 nM; in assay [4], 0.5 nM. The values for the EC50 in assay [5] and in assay [6] were 119 nM and 26 nM, respectively.

In the case of `COC(=O)N[C@H](C(=O)N1C(c2nc3cc([C@H]4CCC(c5ccc6[nH]c([C@@H]7C[C@@H]8CCC[C@@H]8N7C(=O)[C@@H](NC(=O)OC)C(C)C)nc6c5)N4c4cc(F)c(N5CCCCC5)c(F)c4)ccc3[nH]2)C[C@@H]2CCC[C@@H]21)C(C)C` (some centres unmarked) [Example 4.18], the EC50 in the assay with HCV 1b-Con1 replicon was below 0.1 nM.

For the compound `COC(=O)N[C@H](C(=O)N1CCC[C@H]1c1nc2cc(C3CC[C@H](c4ccc5[nH]c([C@@H]6CCCN6C(=O)[C@@H](NC(=O)OC)C6CCOCC6)nc5c4)N3c3cc(F)c(N4CCCCC4)c(F)c3)ccc2[nH]1)C1CCOCC1` (stereo in doubt) [Example 3.18, dimethyl({(2R,5R)-1-[3,5-difluoro-4-(piperidin-1-yl)phenyl]pyrrolidine-2,5-diyl}bis{1H-benzimidazole-5,2-diyl(2S)pyrrolidine-2,1-diyl[(1S)-2-oxo-1-(tetrahydro-2H-pyran-4-yl)ethane-2,1-diyl]})biscarbamate], the EC50 in the assay with HCV 1b-Con1 replicon is below 0.1 nM.

`COC(=O)N[C@H](C(=O)N1CCCC1c1nc2cc([C@H]3CCC(c4cc5nc([C@@H]6CCCN6C(=O)[C@@H](NC(=O)OC)C(C)C)[nH]c5cc4F)N3c3cnc(N4CCC(c5ccccc5)CC4)nc3)c(F)cc2[nH]1)C(C)C` (stereo in doubt) [Example 3.46, methyl{(2S)-1-[(2S)-2-(6-fluoro-5-{(2R,5S)-5-{6-fluoro-2-[(2S)-1-{(2S)-2-[(methoxycarbonyl)amino]-3-methylbutanoyl}pyrrolidin-2-yl]-1H-benzimidazol-5-yl}-1-[2-(4-phenylpiperidin-1-yl)pyrimidin-5-yl]pyrrolidin-2-yl}-1H-benzimidazol-2-yl)pyrrolidin-1-yl]-3-methyl-1-oxobutan-2-yl}carbamate]: the EC50 with HCV 1b-Con1 replicon is below 0.1 nM.

`COC(=O)NC(C(=O)N1CCCC1c1nc2cc(-c3ccc(-c4ccc5[nH]c([C@@H]6CCCN6C(=O)[C@@H](NC(=O)OC)C(C)C)nc5c4)cc3)ccc2[nH]1)C(C)C` (some centres unmarked): the EC50 with HCV genotype 1a replicon worked out at 0.09 nM; with HCV genotype 1b replicon, 0.01 nM; in [1], 36 nM; in assay [2] it was 1 nM; in assay [3] it was 2.7 nM; in assay [4], 0.9 nM. In addition, the EC50 in assay [5] and in assay [6] was 40 nM each time.

Consider `CC(C)(C)OC(=O)NCC(=O)N1CCC[C@H]1c1nc2cc([C@@H]3CC[C@@H](c4ccc5[nH]c([C@@H]6CCCN6C(=O)CNC(=O)OC(C)(C)C)nc5c4)N3c3ccc(N4CCCCC4)c(F)c3)ccc2[nH]1` [Example 3.14, tert-butyl {2-[(2S)-2-(5-{(2S,5S)-5-{2-[(2S)-1-{[(tert-butoxycarbonyl)amino]acetyl}pyrrolidin-2-yl]-1H-benzimidazol-5-yl}-1-[3-fluoro-4-(piperidin-1-yl)phenyl]pyrrolidin-2-yl}-1H-benzimidazol-2-yl)pyrrolidin-1-yl]-2-oxoethyl}carbamate], for which the EC50 with HCV 1b-Con1 replicon is above 10000 nM.

With `COC(=O)N[C@H](C(=O)N1CCC[C@H]1c1nc2cc(C3CC[C@H](c4cc5nc([C@@H]6CCCN6C(=O)[C@@H](NC(=O)OC)C(C)C)[nH]c5cc4F)N3c3cc(F)c(N4CC(C)CC(C)C4)c(F)c3)c(F)cc2[nH]1)C(C)C` (stereo partly drawn) [Example 2.16, methyl{(2S)-1-[(2S)-2-{5-[(5R)-1-[4-(3,5-dimethylpiperidin-1-yl)-3,5-difluorophenyl]-5-{6-fluoro-2-[(2S)-1-{(2S)-2-[(methoxycarbonyl)amino]-3-methylbutanoyl}pyrrolidin-2-yl]-1H-benzimidazol-5-yl}pyrrolidin-2-yl]-6-fluoro-1H-benzimidazol-2-yl}pyrrolidin-1-yl]-3-methyl-1-oxobutan-2-yl}carbamate], the EC50 in the assay with HCV 1b-Con1 replicon is below 0.1 nM.

On to `COC(=O)N[C@H](C(=O)N1CCC[C@H]1c1nc2ccc(-c3ccc(-c4ccc5nc([C@@H]6CCCN6C(=O)[C@@H](NC(=O)OC)C(C)C)[nH]c5c4F)cc3)c(F)c2[nH]1)C(C)C`, for which the EC50 was 0.1 nM with HCV genotype 1a replicon; 0.007 nM in the assay on HCV genotype 1b replicon; 80 nM in assay [1]; 5.8 nM in assay [2]; above 10 nM in assay [3]; 3.6 nM in assay [4]. Moreover, the EC50 in assay [5] came to 52 nM; in assay [6] it was 141 nM.

Take `COC(=O)N[C@H](C(=O)N1CCC[C@H]1c1nc2c(F)cc(-c3ccc(-c4cc(F)c5nc([C@@H]6CCCN6C(=O)[C@@H](NC(=O)OC)C(C)C)[nH]c5c4)cc3)cc2[nH]1)C(C)C`: the EC50 with HCV genotype 1a replicon amounted to 0.26 nM; in the assay on HCV genotype 1b replicon, 0.004 nM; in assay [1], 5.5 nM; in [2] it was 1.8 nM; in [3], 4.3 nM; in assay [4] it was 2.4 nM. The values for the EC50 in assay [5] and in [6] were 59 nM and 34 nM, respectively.

Turning to `COC(=O)N[C@H](C(=O)N1C(c2nc3cc([C@H]4CC[C@H](c5ccc6[nH]c([C@@H]7C[C@@H]8CCC[C@@H]8N7C(=O)[C@@H](NC(=O)OC)C(C)C)nc6c5)N4c4ccc(C(C)(C)C)cc4)ccc3[nH]2)C[C@@H]2CCC[C@@H]21)C(C)C` (stereo partly drawn) [Example 4.19, methyl{(2S)-1-[(2S,3aS,6aS)-2-{5-[(2R,5R)-1-(4-tert-butylphenyl)-5-{2-[(3aS,6aS)-1-{(2S)-2-[(methoxycarbonyl)amino]-3-methylbutanoyl}octahydrocyclopenta[b]pyrrol-2-yl]-1H-benzimidazol-5-yl}pyrrolidin-2-yl]-1H-benzimidazol-2-yl}hexahydrocyclopenta[b]pyrrol-1(2H)-yl]-3-methyl-1-oxobutan-2-yl}carbamate], in the assay on HCV 1b-Con1 replicon, the EC50 was below 0.1 nM.

Source of the values: patent US9586978B2, “Anti-viral compounds” (AbbVie Inc., priority 2009, dated 2017).
